Assay results reported in patent publication US8816089B2, “Methods for controlling SR protein phosphorylation, and antiviral agents whose active ingredients comprise agents that control SR protein activity” (priority 2003, dated 2014).

Each compound was assayed on HIV (assay: HIV infection experiment in MT-4 cells, HIVp24 by Lumipulse ELISA). Conditions: MT-4 cells, 5, 10, or 20 μM, supernatant after 48 hours.

Row | Compound | effect in suppressing HIV replication (HIVp24)
1 | O=C(NC(=S)Nc1cc(C(F)(F)F)ccc1N1CCCCC1)c1cccnc1 [compound 624, 1-nicotinoyl-3-[2-(1-piperidinyl)-5-(trifluoromethyl)phenyl]thiourea] | strong effects in suppressing HIV propagation
2 | O=C(NC(=S)Nc1ccc(I)cc1Cl)c1cccnc1 [compound 623] | strong effects in suppressing HIV propagation
3 | CCN(CC)c1ccc(C(F)(F)F)cc1NC(=O)c1ccncc1 [compound 347, N-[2-diethylamino-5-(trifluoromethyl)phenyl]isonicotinamide] | strong effects in suppressing HIV propagation
4 | O=C(Nc1cc(C(F)(F)F)ccc1N1CCCCC1)c1cccnc1 [compound 343, N-[2-(1-piperidinyl)-5-(trifluoromethyl)phenyl]nicotinamide] | strong effects in suppressing HIV propagation
5 | O=C(NC(=S)Nc1cccc(C(F)(F)F)c1)c1cccnc1 [compound 625] | strong effects in suppressing HIV propagation
6 | Cc1ccc(S(=O)(=O)Nc2cc(C(F)(F)F)ccc2N2CCCCC2)cc1 [compound 622, N-[2-(1-piperidinyl)-5-(trifluoromethyl)phenyl]-p-toluenesulfonamide] | strong effects in suppressing HIV propagation
7 | Cc1ccc(N2CCCCC2)c(NC(=O)c2ccncc2)c1 [compound 342, N-[5-methyl-2-(1-piperidinyl)phenyl]isonicotinamide] | strong effects in suppressing HIV propagation
8 | O=C(NC(=S)Nc1ccccc1)c1cccnc1 [compound 626] | strong effects in suppressing HIV propagation
9 | O=C(Nc1cc(F)ccc1N1CCCCC1)c1ccncc1 [compound 348, N-[5-fluoro-2-(1-piperidinyl)phenyl]isonicotinamide] | strong effects in suppressing HIV propagation
10 | FC(F)(F)c1ccc(N2CCCCC2)c(NC(=S)c2ccncc2)c1 [compound 616, N-[2-(1-piperidinyl)-5-(trifluoromethyl)phenyl]isonicotinthioamide] | strong effects in suppressing HIV propagation
11 | O=C(Nc1cc(C(F)(F)F)ccc1N1CCCCC1)c1ccc([N+](=O)[O-])cc1 [compound 345, N-[2-(1-piperidinyl)-5-(trifluoromethyl)phenyl]-4-nitrobenzamide] | strong effects in suppressing HIV propagation
12 | O=C(Nc1cc(C(F)(F)F)ccc1N1Cc2ccccc2C1)c1ccncc1 [compound 620, N-[2-(2-isoindolinyl)-5-(trifluoromethyl)phenyl]isonicotinamide] | strong effects in suppressing HIV propagation
13 | O=C(Nc1cccc(C(F)(F)F)c1)c1ccncc1 [compound 608, N-[3-(trifluoromethyl)phenyl]isonicotinamide] | strong effects in suppressing HIV propagation
14 | O=C(Nc1cc(Cl)ccc1N1CCCCC1)c1ccncc1 [compound 341, N-[5-chloro-2-(1-piperidinyl)phenyl]isonicotinamide] | strong effects in suppressing HIV propagation

These compounds were tested on SRPK1 or SRPK2 (assay: Inhibition of SRPK1 or SRPK2 phosphorylation activity by SRPIN-1 analogs (FIG. 5A)). Conditions: 10 μM in DMSO, 30° C., 20 minutes.
Assay type: biochemical
Method: FIG. 5A: Evaluation of the SRPK-inhibiting activities of SRPIN-1 and analogs thereof.
The same procedure as described in Example 4B was used to determine whether SRPIN-1 analogs had the activity of inhibiting the phosphorylation activity of SRPK1 and SRPK2. Each SRPIN-1 analog (10 μM; in DMSO) was incubated with 1 μg of purified recombinant SRPK1 or SRPK2 protein, which was expressed in E. coli, in a reaction buffer (400 μM HEPES (pH 7.5), 100 μM MgCl2, 200 μM ATP, […] [γ-^32P] ATP, and 1 mg/ml RS peptide (SEQ ID NO: 5)) in a 30° C. water bath for 20 minutes.
After RS peptide was incubated with SRPK1 or SRPK2 for 20 minutes, the reaction solution was dropped onto P81 phosphocellulose membrane (P81; Whatman) and the membrane was washed three times for ten minutes with 5% phosphoric acid solution. After washing, ^32P radioactivity on the P81 membrane was determined using a liquid scintillation counter.

Row | Compound | inhibitory effect on the phosphorylation activity of SRPK1 and/or SRPK2
15 | O=C(NC(=S)Nc1cc(C(F)(F)F)ccc1N1CCCCC1)c1cccnc1 [compound 624, 1-nicotinoyl-3-[2-(1-piperidinyl)-5-(trifluoromethyl)phenyl]thiourea] | strong inhibitory effect
16 | O=C(Nc1cc(C(F)(F)F)ccc1Br)c1ccncc1 [compound 612, N-[2-bromo-5-(trifluoromethyl)phenyl]isonicotinamide] | strong inhibitory effect
17 | O=C(Nc1cc(C(F)(F)F)ccc1N1CCc2ccccc2C1)c1ccncc1 [compound 621, N-[2-(1,2,3,4-tetrahydroisoquinolin-2-yl)-5-(trifluoromethyl)phenyl]isonicotinamide] | strong inhibitory effect
18 | O=C(NC(=S)Nc1cccc(C(F)(F)F)c1)c1cccnc1 [compound 625] | strong inhibitory effect
